Reference: US9745284B2, “2-pyridyloxy-4-ether orexin receptor antagonists” (MERCK SHARP & DOHME CORP., priority 2013, dated 2017)

Columns and labels:
[1] = biological target: human orexin-2 receptor (Homo sapiens (Human), UniProt O43614); experiment: FLIPR Ca2+ flux assay, orexin-2 receptor; assay type: cell-based; conditions: CHO cells expressing human orexin-2 receptor; agonist 70 pM Ala-6,12 orexin-A; read-out: hOX2R FLIPR IC50
Method: The utility of the compounds in accordance with the present invention as orexin receptor OX1R and/or OX2R antagonists may be readily determined without undue experimentation by methodology well known in the art, including the “FLIPR Ca^2+ Flux Assay” (Okumura et al., Biochem. Biophys. Res. Comm. 280:976-981, 2001). In a typical experiment the OX1 and OX2 receptor antagonistic activity of the compounds of the present invention was determined in accordance with the following experimental method. For intracellular calcium measurements, Chinese hamster ovary (CHO) cells expressing the rat orexin-1 receptor or the human orexin-2 receptor, are grown in Iscove's modified DMEM containing 2 mM L-glutamine, […], 1% hypoxanthine-thymidine supplement, 100 U/ml penicillin, 100 μg/ml streptomycin and 10% heat-inactivated fetal calf serum (FCS). The cells are seeded at 20,000 cells/well into Becton-Dickinson black 384-well clear bottom sterile plates coated with poly-D-lysine. All reagents were from GIBCO-Invitrogen Corp. The seeded plates are incubated overnight at 37° C. and 5% CO2. Ala-6,12 human orexin-A as the agonist is prepared as a 1 mM stock solution in 1% bovine serum albumin (BSA) and diluted in assay buffer (HBSS containing 20 mM HEPES, 0.1% BSA and 2.5 mM probenecid, pH7.4) for use in the assay at a final concentration of 70 pM. Test compounds are prepared as 10 mM stock solution in DMSO, then diluted in 384-well plates, first in DMSO, then assay buffer. On the day of the assay, cells are washed 3 times with 100 μl assay buffer and then incubated for 60 min (37° C., 5% CO2) in 60 μl assay buffer containing 1 μM Fluo-4AM ester, 0.02% pluronic acid, and 1% BSA. The dye loading solution is then aspirated and cells are washed 3 times with 100 μl assay buffer. 30 μl of that same buffer is left in each well. Within the Fluorescent Imaging Plate Reader (FLIPR, Molecular Devices), test compounds are added to the plate in a volume of 25 μl, incubated for 5 min and finally 25 μl of agonist is added. Fluorescence is measured for each well at 1 second intervals for 5 minutes and the height of each fluorescence peak is compared to the height of the fluorescence peak induced by 70 pM Ala-6,12 orexin-A with buffer in place of antagonist. For each antagonist, IC50 value (the concentration of compound needed to inhibit 50% of the agonist response) is determined. Alternatively, compound potency can be assessed by a radioligand binding assay (described in Bergman et. al. Bioorg. Med. Chem. Lett. 2008, 18, 1425-1430) in which the inhibition constant (Ki) is determined in membranes prepared from CHO cells expressing either the OX1 or OX2 receptor. The intrinsic orexin receptor antagonist activity of a compound which may be used in the present invention may be determined by these assays.

[2] = biological target: hOX1R (Homo sapiens, UniProt O43613); experiment: FLIPR Ca2+ flux assay, orexin-1 receptor; assay type: cell-based; conditions: CHO cells expressing orexin-1 receptor; agonist 70 pM Ala-6,12 orexin-A

human orexin-2 receptor, sequence (O43614 whole entry): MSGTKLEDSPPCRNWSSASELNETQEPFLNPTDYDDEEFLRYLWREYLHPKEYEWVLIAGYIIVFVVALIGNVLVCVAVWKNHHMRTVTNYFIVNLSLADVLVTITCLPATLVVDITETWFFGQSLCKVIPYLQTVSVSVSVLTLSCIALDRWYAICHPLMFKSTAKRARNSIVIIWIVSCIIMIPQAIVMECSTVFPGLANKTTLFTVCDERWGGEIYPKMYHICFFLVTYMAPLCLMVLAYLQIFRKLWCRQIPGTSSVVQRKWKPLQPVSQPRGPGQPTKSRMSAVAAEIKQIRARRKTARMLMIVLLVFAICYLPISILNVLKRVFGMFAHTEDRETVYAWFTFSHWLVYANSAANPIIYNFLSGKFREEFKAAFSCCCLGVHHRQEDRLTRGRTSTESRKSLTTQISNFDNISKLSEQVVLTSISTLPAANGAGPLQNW

| SMILES | IC50 [1] [nM] | IC50 [2] [nM] |
| --- | --- | --- |
| C[C@@H]1CC[C@@H](Oc2cc(OCC(F)F)ccn2)CN1C(=O)c1cccc(F)c1-n1nccn1 [Example 34, 4-(2,2-difluoroethoxy)-2-{[(3R,6R)-1-{[3-fluoro-2-(2H-1,2,3-triazol-2-yl)phenyl]carbonyl}-6-methylpiperidin-3-yl]oxy}pyridine] | 42 | 2140 |
| Cc1noc(-c2ccccc2C(=O)N2C[C@H](Oc3cc(OCC(F)F)ccn3)CC[C@H]2C)n1 [Example 37, 4-(2,2-difluoroethoxy)-2-{[(3R,6R)-6-methyl-1-{[2-(3-methyl-1,2,4-oxadiazol-5-yl)phenyl]carbonyl}piperidin-3-yl]oxy}pyridine] | 52 | 2720 |
| C[C@@H]1CC[C@@H](Oc2cc(OCC(F)F)ccn2)CN1C(=O)c1ccc(F)cc1-n1nccn1 [Example 35, 4-(2,2-difluoroethoxy)-2-{[(3R,6R)-1-{[4-fluoro-2-(2H-1,2,3-triazol-2-yl)phenyl]carbonyl}-6-methylpiperidin-3-yl]oxy}pyridine] | 62 | 3270 |
| CC(C)Oc1ccnc(O[C@@H]2CC[C@@H](C)N(C(=O)c3ccsc3-n3nccn3)C2)c1 [Example 61, 4-(1-methylethoxy)-2-{[(3R,6R)-6-methyl-1-{[2-(2H-1,2,3-triazol-2-yl)thiophen-3-yl]carbonyl}piperidin-3-yl]oxy}pyridine] | 25 | 1480 |
| COc1ccnc(O[C@@H]2CC[C@@H](C)N(C(=O)c3ccccc3-n3nccn3)C2)c1C(C)=O [Example 51, 1-(4-methoxy-2-{[(3R,6R)-6-methyl-1-{[2-(2H-1,2,3-triazol-2-yl)phenyl]carbonyl}piperidin-3-yl]oxy}pyridin-3-yl)ethanone] | 12.3 | 976 |
| COc1ccnc(O[C@@H]2CC[C@@H](C)N(C(=O)c3ccc(OC)nc3C3CC3)C2)c1 [Example 21, 2-cyclopropyl-6-methoxy-3-({(2R,5R)-5-[(4-methoxypyridin-2-yl)oxy]-2-methylpiperidin-1-yl}carbonyl) pyridine] | 38.3 | 8190 |
| CC(C)COc1ccnc(O[C@@H]2CC[C@@H](C)N(C(=O)c3ccccc3-n3nccn3)C2)c1 [Example 42, 4-(2-methylpropoxy)-2-{[(3R,6R)-6-methyl-1-{[2-(2H-1,2,3-triazol-2-yl)phenyl]carbonyl}piperidin-3-yl]oxy}pyridine] | 134 | 5610 |
| CC(C)Oc1ccnc(O[C@@H]2CC[C@@H](C)N(C(=O)c3ccc(F)cc3-n3nccn3)C2)c1 [Example 23, 2-{[(3R,6R)-1-{[4-fluoro-2-(2H-1,2,3-triazol-2-yl)phenyl]carbonyl}-6-methylpiperidin-3-yl]oxy}-4-(1-methylethoxy) pyridine] | 41.2 | 2140 |
| COc1ccnc(O[C@@H]2CC[C@@H](C)N(C(=O)c3ccccc3-n3nccn3)C2)c1C [Example 48, 4-Methoxy-3-methyl-2-{[(3R,6R)-6-methyl-1-{[2-(2H-1,2,3-triazol-2-yl)phenyl]carbonyl}piperidin-3-yl]oxy}pyridine] | 9.7 | 568 |
| C[C@@H]1CC[C@@H](Oc2cc(OCC(F)F)ccn2)CN1C(=O)c1c(F)cccc1-n1nccn1 [Example 36, 4-(2,2-difluoroethoxy)-2-{[(3R,6R)-1-{[2-fluoro-6-(2H-1,2,3-triazol-2-yl)phenyl]carbonyl}-6-methylpiperidin-3-yl]oxy}pyridine] | 56 | 2970 |
| C[C@@H]1CC[C@@H](Oc2cc(OCC(F)F)ccn2)CN1C(=O)c1ccccc1-c1ncccn1 [Example 45, 2-(2-{[(2R,5R)-5-{[4-(2,2-difluoroethoxy)pyridin-2-yl]oxy}-2-methylpiperidin-1-yl]carbonyl}phenyl) pyrimidine] | 33 | 2940 |
| C[C@@H]1CC[C@@H](Oc2cc(OCC(F)(F)F)ccn2)CN1C(=O)c1ccsc1-c1ncccn1 [Example 66, 2-(3-{[(2R,5R)-2-methyl-5-{[4-(2,2,2-trifluoroethoxy)pyridin-2-yl]oxy}piperidin-1-yl]carbonyl}thiophen 2-yl)pyrimidine] | 26 | 2080 |
| C[C@@H]1CC[C@@H](Oc2cc(OCC(F)F)ccn2)CN1C(=O)c1ccccc1-n1nccn1 [Example 27, (2-(2H-1,2,3-triazol-2-yl)phenyl)((2R,5R)-5-((4-(2,2-difluoroethoxy)pyridin-2-yl)oxy)-2-methylpiperidin-1-yl)methanone] | 12 | 1420 |
| COc1ccnc(O[C@@H]2CC[C@@H](C)N(C(=O)c3ccccc3-n3nccn3)C2)c1 [Example 2, 4-methoxy-2-{[(3R,6R)-6-methyl-1-{[2-(2H-1,2,3-triazol-2-yl)phenyl]carbonyl}piperidin-3-yl]oxy}pyridine] | 12.5 | 617 |
| C[C@@H]1CC[C@@H](Oc2cc(OC(F)F)ccn2)CN1C(=O)c1ccsc1-n1nccn1 [Example 54, (2-(2H-1,2,3-Triazol-2-yl)thiophen-3-yl)((2R,5R)-5-((4-(difluoromethoxy)pyridin-2-yl)oxy)-2-methylpiperidin-1-yl)methanone] | 11 | 1020 |
| CC(C)Oc1ccnc(O[C@@H]2CC[C@@H](C)N(C(=O)c3ccccc3-c3ncccn3)C2)c1 [Example 44, 2-(2-{[(2R,5R)-2-Methyl-5-{[4-(1-methylethoxy)pyridin-2-yl]oxy}piperidin-1-yl]carbonyl}phenyl)pyrimidine] | 67 | 1640 |
| CC(C)Oc1ccnc(O[C@@H]2CC[C@@H](C)N(C(=O)c3ccccc3-n3ncnn3)C2)c1 [Example 7, 4-(1-methylethoxy)-2-{[(3R,6R)-6-methyl-1-{[2-(2H-tetrazol-2-yl)phenyl]carbonyl}piperidin-3-yl]oxy}pyridine] | 23 | 1200 |
| C[C@@H]1CC[C@@H](Oc2cc(OCc3ccccc3)ccn2)CN1C(=O)c1ccccc1-n1nccn1 [Example 4, 4-(benzyloxy)-2-{[(3R,6R)-6-methyl-1-{[2-(2H-1,2,3-triazol-2-yl)phenyl]carbonyl}piperidin-3-yl]oxy}pyridine] | 59.4 | 1850 |
| Cc1nc(-c2ccccc2C(=O)N2C[C@H](Oc3cc(OCC(F)F)ccn3)CC[C@H]2C)no1 [Example 38, 4-(2,2-difluoroethoxy)-2-{[(3R,6R)-6-methyl-1-{[2-(5-methyl-1,2,4-oxadiazol-3-yl)phenyl]carbonyl}piperidin-3-yl]oxy}pyridine] | 56 | 2500 |
| CCOc1ccnc(O[C@@H]2CC[C@@H](C)N(C(=O)c3ccccc3-n3ncnn3)C2)c1 [Example 8, 4-ethoxy-2-{[(3R,6R)-6-methyl-1-{[2-(2H-tetrazol-2-yl)phenyl]carbonyl}piperidin-3-yl]oxy}pyridine] | 35.4 | 2010 |
| C[C@@H]1CC[C@@H](Oc2cc(OCC(F)F)ccn2)CN1C(=O)c1ccccc1C1(C#N)CC1 [Example 32, 1-(2-{[(2R,5R)-5-{[4-(2,2-difluoroethoxy)pyridin-2-yl]oxy}-2-methylpiperidin-1-yl]carbonyl}phenyl) cyclopropanecarbonitrile] | 24 | 4360 |
| COc1ccnc(O[C@@H]2CC[C@@H](C)N(C(=O)c3cccc(F)c3-n3nccn3)C2)c1 [Example 10, 2-{[(3R,6R)-1-{[3-fluoro-2-(2H-1,2,3-triazol-2-yl)phenyl]carbonyl}-6-methylpiperidin-3-yl]oxy}-4-methoxypyridine] | 14.7 | 576 |
| C[C@@H]1CC[C@@H](Oc2cc(OCC(F)(F)F)ccn2)CN1C(=O)c1ccccc1-n1nccn1 [Example 28, (2-(2H-1,2,3-triazol-2-yl)phenyl)((2R,5R)-2-methyl-5-((4-(2,2,2-trifluoroethoxy)pyridin-2-yl)oxy)piperidin-1-yl)methanone] | 8 | 1340 |
| COc1ccnc(O[C@@H]2CC[C@@H](C)N(C(=O)c3ccsc3-n3nccn3)C2)c1 [Example 59, 4-methoxy-2-{[(3R,6R)-6-methyl-1-{[2-(2H-1,2,3-triazol-2-yl)thiophen-3-yl]carbonyl}piperidin-3-yl]oxy}pyridine] | 11 | – |
